In article PMC6556873, “Rapid Covalent-Probe Discovery by Electrophile-Fragment Screening” (Journal of the American Chemical Society, 2019):
Where two headings read alike, the source gives them in different places.

Assays:
BSA = target: T1, BSA (Bos taurus, UniProt P02769); set-up: Intact protein LC/MS covalent labelling, fragments in pools of five, 200 uM each, 4 °C; settings: 24 h, 4 °C, pool of five; 200 µM; covalent
T1 construct: gene ALB

NNMT (hNNMT) = target: T2, NNMT (hNNMT) (Homo sapiens, UniProt P40261); set-up: Intact protein LC/MS covalent labelling, fragments in pools of five, 200 uM each, 4 °C; settings: 24 h, 4 °C, pool of five; 200 µM; covalent
T2 construct: wild type, N-terminal His6 tag kept (no cleavage described), E. coli, construct 31248 Da
T2 sequence (P40261 1-264): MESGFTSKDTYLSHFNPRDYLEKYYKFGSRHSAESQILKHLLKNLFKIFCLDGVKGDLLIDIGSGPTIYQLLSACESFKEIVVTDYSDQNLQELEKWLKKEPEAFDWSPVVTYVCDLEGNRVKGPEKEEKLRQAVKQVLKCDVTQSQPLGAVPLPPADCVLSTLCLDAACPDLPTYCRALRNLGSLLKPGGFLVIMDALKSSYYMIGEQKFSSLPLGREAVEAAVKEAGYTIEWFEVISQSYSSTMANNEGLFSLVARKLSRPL

NUDT7 = target: T3, NUDT7 (Homo sapiens, UniProt P0C024); set-up: Intact protein LC/MS covalent labelling, fragments in pools of five, 200 uM each, 4 °C; settings: 24 h, 4 °C, pool of five; 200 µM; covalent
T3 construct: residues 14-235, E. coli, pNIC28-Bsa4, N-terminal His6 tag removed by TEV, construct 26672 Da
T3 sequence (P0C024 14-235): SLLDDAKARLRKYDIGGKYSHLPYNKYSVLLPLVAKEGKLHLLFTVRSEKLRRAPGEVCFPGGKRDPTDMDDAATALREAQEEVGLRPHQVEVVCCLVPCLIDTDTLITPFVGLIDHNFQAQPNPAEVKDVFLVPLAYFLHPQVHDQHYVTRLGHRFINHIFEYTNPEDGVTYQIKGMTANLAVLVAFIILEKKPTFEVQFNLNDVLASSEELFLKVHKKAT

OTUB2 (OTUB2A) = target: T4, OTUB2 (OTUB2A) (Homo sapiens, UniProt Q96DC9); set-up: Intact protein LC/MS covalent labelling, fragments in pools of five, 200 uM each, 4 °C; settings: 24 h, 4 °C, pool of five; 200 µM; covalent
T4 construct: full length residues 1-234, E. coli BL21(DE3)-R3, His tag removed by TEV, construct 27312 Da
T4 sequence (Q96DC9 1-234): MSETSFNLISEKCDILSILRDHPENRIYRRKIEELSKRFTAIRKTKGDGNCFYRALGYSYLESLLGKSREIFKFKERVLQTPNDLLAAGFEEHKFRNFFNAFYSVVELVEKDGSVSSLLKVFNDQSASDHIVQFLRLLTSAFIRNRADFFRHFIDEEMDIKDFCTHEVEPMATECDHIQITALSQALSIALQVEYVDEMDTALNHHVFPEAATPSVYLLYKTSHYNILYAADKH

PCAF = target: T5, PCAF (Homo sapiens, UniProt Q92831); set-up: Intact protein LC/MS covalent labelling, fragments in pools of five, 200 uM each, 4 °C; settings: 24 h, 4 °C, pool of five; 200 µM; covalent
T5 construct: gene KAT2B
T5 sequence (Q92831 whole entry, the tested form may be a part): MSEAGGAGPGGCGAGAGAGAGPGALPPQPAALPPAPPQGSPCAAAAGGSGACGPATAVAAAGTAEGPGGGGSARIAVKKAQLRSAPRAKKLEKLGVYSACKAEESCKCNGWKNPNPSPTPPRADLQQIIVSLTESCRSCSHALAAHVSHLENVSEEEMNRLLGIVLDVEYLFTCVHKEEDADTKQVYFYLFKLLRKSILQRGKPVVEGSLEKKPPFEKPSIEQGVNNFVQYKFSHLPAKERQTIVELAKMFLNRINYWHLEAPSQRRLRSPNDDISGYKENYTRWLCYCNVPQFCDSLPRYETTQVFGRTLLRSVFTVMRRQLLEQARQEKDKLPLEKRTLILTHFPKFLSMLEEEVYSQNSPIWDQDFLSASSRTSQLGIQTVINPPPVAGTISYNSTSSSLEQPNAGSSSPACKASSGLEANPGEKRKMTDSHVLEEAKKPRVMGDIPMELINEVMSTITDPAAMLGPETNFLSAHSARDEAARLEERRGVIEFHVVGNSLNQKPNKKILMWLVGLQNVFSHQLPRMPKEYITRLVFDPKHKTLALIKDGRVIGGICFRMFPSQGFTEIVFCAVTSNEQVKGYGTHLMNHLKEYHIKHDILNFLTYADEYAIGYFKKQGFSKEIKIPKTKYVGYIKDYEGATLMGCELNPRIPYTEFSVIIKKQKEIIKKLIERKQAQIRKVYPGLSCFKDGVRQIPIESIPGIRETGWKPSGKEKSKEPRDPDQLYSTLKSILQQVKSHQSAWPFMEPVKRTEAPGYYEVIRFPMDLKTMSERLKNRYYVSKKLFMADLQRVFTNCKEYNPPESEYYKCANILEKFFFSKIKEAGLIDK

in vitro [1] = experiment: in vitro; set-up: species or system CCD841, HEK293; settings: human, hb2 cells, read-out: HB-2 Cells Viability (%)
in vitro [2] = experiment: in vitro; set-up: species or system HB2, HEK293; settings: human, ccd841 cells
in vitro [3] = experiment: in vitro; set-up: species or system HB2, CCD841; settings: human, hek293 cells

T1 sequence (P02769 whole entry, the tested form may be a part): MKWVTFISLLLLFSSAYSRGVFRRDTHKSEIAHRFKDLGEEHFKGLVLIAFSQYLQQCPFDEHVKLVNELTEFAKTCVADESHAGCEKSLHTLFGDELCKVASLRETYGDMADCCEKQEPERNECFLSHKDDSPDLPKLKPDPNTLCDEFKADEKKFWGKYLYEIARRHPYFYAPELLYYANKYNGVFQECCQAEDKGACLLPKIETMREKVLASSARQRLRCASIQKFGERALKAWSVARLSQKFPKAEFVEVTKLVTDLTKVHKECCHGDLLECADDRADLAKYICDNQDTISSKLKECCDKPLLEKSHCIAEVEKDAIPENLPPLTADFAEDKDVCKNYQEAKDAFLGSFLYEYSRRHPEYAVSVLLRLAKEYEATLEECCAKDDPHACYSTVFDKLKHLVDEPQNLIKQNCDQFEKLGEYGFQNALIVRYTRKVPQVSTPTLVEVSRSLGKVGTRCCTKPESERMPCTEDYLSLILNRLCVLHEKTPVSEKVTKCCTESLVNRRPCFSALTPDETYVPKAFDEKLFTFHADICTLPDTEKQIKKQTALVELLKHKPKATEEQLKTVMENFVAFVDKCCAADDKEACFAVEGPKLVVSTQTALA

Row | SMILES | BSA (BSA) | NNMT (NNMT (hNNMT)) | NUDT7 (NUDT7) | OTUB2 (OTUB2 (OTUB2A)) | PCAF (PCAF) | viability at 48 h, 10 µM (in vitro [1]) | viability at 48 h, 10 µM (in vitro [2]) | viability at 48 h, 10 µM (in vitro [3])
1 | CC(=O)c1ccccc1NC(=O)CCl [PCM-0102282] | 0 | 0.19 | 0 | 0 | 0 | 102% | 90.3% | 87.2%
2 | O=C(CCl)Nc1cccc(C(F)(F)F)c1 [PCM-0102290] | 0 | 0.77 | 0.12 | 0.26 | 0 | 9.5% | 40% | 2.3%
3 | O=C(CCl)N1CCN(c2ccccc2Cl)CC1 [PCM-0102297] | 0 | 0.15 | 0.35 | 0 | 0 | 2.3% | 52% | 3.9%
4 | CC(C)(C)NC(=O)CN1CCN(C(=O)CCl)CC1.Cl [PCM-0102302] | 0 | 0.24 | 0.08 | 0.13 | 0 | 97% | 98.9% | 84.4%
5 | CN(C)C(=O)CN1CCN(C(=O)CCl)CC1.Cl [PCM-0102304] | 0 | 0 | 0 | 0 | 0 | 107% | 114% | 128%
6 | CN1C(=O)c2ccc(NC(=O)CCl)cc2C1=O [PCM-0102309] | 0 | 0 | 0.12 | 0.19 | 0 | 52.5% | 61.2% | 67.2%
7 | CC(=O)NNC(=O)CCl [PCM-0102310] | 0 | 0 | 0 | 0.18 | 0 | 96.1% | 90.3% | 84.1%
8 | O=C(CCl)Nc1cc2ccccc2cc1C(=O)O [PCM-0102311] | 0 | 0.2 | 0.17 | 0.1 | 0 | 105% | 100% | 109%
9 | NC(=O)c1ccsc1NC(=O)CCl [PCM-0102314] | 0 | 0.32 | 0.18 | 0 | 0 | 58.5% | 74.4% | 33.7%
10 | CC1(C)C2CCC1(C)C(NC(=O)CCl)C2 (stereo not drawn) [PCM-0102315] | 0.12 | 0 | 0 | 0 | 0 | 84.4% | 95% | 75.9%
11 | COC(=O)c1c(NC(=O)CCl)sc(C)c1C [PCM-0102322] | 0 | 0.18 | 0.4 | 0 | 0 | 62.5% | 80% | 33.3%
12 | COc1ccc2nc(NC(=O)CCl)sc2c1 [PCM-0102330] | 0 | 0.71 | 1 | 0 | 0 | 32.7% | 44.6% | 39.7%

Continued, in another order:

Row | BSA (BSA) | NNMT (NNMT (hNNMT)) | NUDT7 (NUDT7) | OTUB2 (OTUB2 (OTUB2A)) | PCAF (PCAF) | SMILES | viability at 48 h, 10 µM (in vitro [1]) | viability at 48 h, 10 µM (in vitro [2]) | viability at 48 h, 10 µM (in vitro [3])
13 | 0 | 0 | 0 | 0.19 | 0 | O=C(CCl)Nc1ccnn1C1CCCC1 [PCM-0102336] | 41.3% | 60.4% | 7.7%
14 | 0 | 0.53 | 0 | 0.45 | 0 | Cc1oc(NC(=O)CCl)c(C#N)c1C [PCM-0102337] | 56.5% | 56.4% | 82.9%
15 | 0 | 0.7 | 0.18 | 0.82 | 0 | Cc1ccc(NC(=O)CCl)cc1C [PCM-0102339] | 5.2% | 34.9% | 1.5%
16 | 0 | 0.26 | 0 | 0.17 | 0 | Cc1cccc(CN2CCN(C(=O)CCl)CC2)c1 [PCM-0102340] | 19.6% | 42.4% | 15.3%
17 | 0 | 0 | 0 | 0.66 | 0 | CC(C)(C)c1ccc(C(=O)NNC(=O)CCl)cc1 [PCM-0102355] | 48.1% | 44.3% | 53.7%
18 | 0 | 0 | 0 | 0 | 0 | CN(C)C(=O)CNC(=O)CCl [PCM-0102365] | 103% | 100% | 95.6%
19 | 0 | 0.51 | 0.2 | 0.27 | 0 | O=C(CCl)Nc1cc([N+](=O)[O-])ccc1Cl [PCM-0102366] | 1.3% | 4.3% | 2.6%
20 | 0 | 0 | 0.23 | 0.18 | 0 | COc1ccc(Cl)cc1NC(=O)CCl [PCM-0102370] | 3.7% | 34.6% | 3.3%
21 | 0 | 0.28 | 0.28 | 0 | 0 | O=C(CCl)N(c1ccccc1)C1C=CS(=O)(=O)C1 (stereo not drawn) [PCM-0102372] | 24.1% | 31% | 11.2%
22 | 0 | 0 | 0 | 0 | 0 | Cl.O=C(CCl)N1CCN(c2ccccc2F)CC1 [PCM-0102373] | 55.8% | 79.7% | 64.3%
23 | 0 | 0.55 | 0.23 | 0.34 | 0 | CC(NC(=O)CCl)c1ccc(Br)cc1 (stereo not drawn) [PCM-0102374] | 63.8% | 73.1% | 50%
24 | 0 | 0 | 0 | 0.13 | 0 | O=C(CCl)Nc1ccccc1N1CCCC1=O [PCM-0102375] | 79.6% | 78% | 51.9%
25 | 0 | 0.64 | 0.81 | 0.45 | 0 | Cc1ccc(-c2cc(NC(=O)CCl)on2)cc1 [PCM-0102382] | 42.7% | 54.6% | 52.2%
26 | 0 | 0 | 0 | 0 | 0 | O=C(CCl)N1CCN(Cc2ccc3c(c2)OCCO3)CC1 [PCM-0102386] | 42.2% | 75.9% | 39.1%
27 | 0 | 0 | 0.1 | 0.14 | 0 | O=C(Nc1ccccc1O)C1CCN(C(=O)CCl)CC1 [PCM-0102389] | 35.7% | 63% | 16%
